Broadly, the EC50 is the concentration needed to bring the measured effect to its halfway point. In general, IC50 refers to the concentration that gives 50% inhibition.

The test system of series [1] is T47D cells expressing mutant PI3Ka (H1047R). In words: In vitro cell proliferation (CellTiter-Glo, 72 hours), T47D cells. In kind it is cell-based. The settings on record: inhibition of proliferation, read-out: Avg T-47D EC50. In a few lines:
(§1)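 1,500 cells/well (T47D in RPMI/10% FBS/insulin 0.2 units/mL; SKBR3 in McCoys 5a/10% FBS) plated onto 10-point compound dilutions and grown 72 h at 37 °C, 5% CO2; CellTiter-Glo luminescence. Inhibition scaled between 0.1% DMSO and 10 uM alpelisib; EC50 from four-parameter logistic fit.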
Background: Cellular ATP, detected with luciferase, serves as a proxy for viable cell number.

For series [2], the system named is SKBR3 cells express WT PI3Ka. Description: In vitro cell proliferation (CellTiter-Glo, 72 hours), SKBR3 cells. In kind it is cell-based. The settings on record: inhibition of proliferation. The procedure, abridged: as §1
Series [3] relates to phosphorylation of AKT (pAKT) in T47D cells expressing mutant PI3Ka (H1047R). Description: In vitro cell pAKT (Ser473) HTRF, T47D cells. The settings on record: inhibition of pAKT, read-out: Avg T-47D IC50. It counts as cell-based. The procedure, abridged: (§2)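 T47D (PI3Kα H1047R; RPMI, 10% FBS, insulin) or SKBR3 (WT PI3Kα; McCoy's 5a, 10% FBS) cells, 5000/well, are treated with 10-point compound dilutions for 6 h at 37° C. Lysates are read for pAKT Ser473 by HTRF. Inhibition is normalised to DMSO (0%) and 10 μM alpelisib (100%), and IC50 comes from a four-parameter fit.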
On the technique in general: In TR-FRET formats the signal depends on donor and acceptor labels being close together.

Series [4] relates to phosphorylation of AKT (pAKT) in SKBR3 cells express WT PI3Ka. Description: In vitro cell pAKT (Ser473) HTRF, SKBR3 cells. In kind it is cell-based. The settings on record: inhibition of pAKT. In a few lines:
as §2

Series [5] in a line: Mouse pharmacokinetics, single IV or PO dose, plasma LC/MS/MS. It counts as in vivo. The following applies: CD1 mice; for PK-Mouse: PO F: PO 10 mg/kg vs IV 1 mg/kg; for AUC(0-t) / clearance: mouse, plasma; for clearance: read-out: PK-Mouse: IV Cl. On the procedure: CD1 mice were dosed with a single IV or PO dose, followed by serial sampling of plasma at 0.0833 (IV only), 0.25, 0.5, 1, 2, 4, 8, 24 hours post dose. Desired serial concentrations of working solutions were achieved by diluting stock solution of analyte with 50% acetonitrile in water solution. 10 μL of working solutions (0.5, 1, 2, 5, 10, 50, 100, 500, 1000 ng/mL) were added to 10 μL of the blank Female CD1 Mouse plasma to achieve calibration standards of 0.5~1000 ng/mL (0.5, 1, 2, 5, 10, 50, 100, 500, 1000 ng/mL) in a total volume of […]. Five quality control samples at 1 ng/mL, 2 ng/mL, 5 ng/mL, 50 ng/mL and 800 ng/mL for plasma were prepared independently of those used for the calibration curves. These QC samples were prepared on the day of analysis in the same way as calibration standards. 20 μL standards, 20 μL QC samples and 20 μL unknown samples (10 μL plasma with 10 μL blank solution) were added to 200 μL of acetonitrile containing IS mixture for precipitating protein respectively. Then the samples were vortexed for 30 s. after centrifugation at 4° Celsius, 4000 rpm for 15 min. The supernatant was diluted with water at a ratio of 1:2 (V/V, 1:2), Then 5 μL of diluted supernatant was injected into the LC/MS/MS system for quantitative analysis.

[6] abbreviates: IV 1 mg/kg, solution in 20% PEG400/20% PG/60% of 20% HPBCD solution in water, read-out: PK-Mouse: IV AUC last.
Where [7] appears, read: IV 1 mg/kg, solution in 20% PEG400/20% PG/60% of 20% HPBCD solution in water.
Setting [8] is: PO 10 mg/kg, suspension in 30% SBEβCD in water, read-out: PK-Mouse PO AUC last.

Like-named read-outs stand apart in the source and are kept apart here.

With `Cc1cc(C(C)Nc2ccc(F)cc2C(=O)O)c2nc(N3CCC(C)(C)CC3)n(C)c(=O)c2c1` (single isomer, unassigned) [Example 29, 2-((1-(2-(4,4-dimethylpiperidin-1-yl)-3,6-dimethyl-4-oxo-3,4-dihydroquinazolin-8-yl)ethyl)amino)-5-fluorobenzoic acid], the EC50 in series [1] was in the range of 0.001 to 0.5 µM; in series [2] (Homo sapiens, SK-BR-3, 72 h) it was 2 to 15 µM. Moreover, the concentration for half-maximal inhibition (IC50) in series [3] (6 hour) is 0.001 to 1 µM; in series [4] (Homo sapiens, SK-BR-3, 6 h), more than 15 µM. In addition, the “PK-Mouse: PO F” value in series [5] was determined as 61%. Further, the AUC(0-t) in series [5] (setting [6]) was determined as 1740 ng·h/mL; in series [5] (setting [8]), 10700 ng·h/mL. Moreover, in series [5] (setting [7]), the clearance worked out at 8.7 mL/min/kg.
As to `CC(Nc1ccccc1C(=O)O)c1cc(F)cc2c(=O)n(C)c(N3CCN(CC(F)(F)F)CC3)nc12` (single isomer, unassigned) [Example 35, 2-((1-(6-fluoro-3-methyl-4-oxo-2-(4-(2,2,2-trifluoroethyl)piperazin-1-yl)-3,4-dihydroquinazolin-8-yl)ethyl)amino)benzoic acid], the concentration for a half-maximal effect (EC50) is 0.5 to 2 µM in series [1] and more than 15 µM in series [2] (Homo sapiens, SK-BR-3, 72 h). The half-inhibitory concentration (IC50) was 0.001 to 1 µM in series [3] (6 hour) and more than 15 µM in series [4] (Homo sapiens, SK-BR-3, 6 h). Besides, the “PK-Mouse: PO F” value in series [5] worked out at 187%. Moreover, the AUC(0-t) in series [5] (setting [6]) stood at 242 ng·h/mL; in series [5] (setting [8]), 4520 ng·h/mL. For the same compound, in series [5] (setting [7]), the clearance is 59.5 mL/min/kg.
For the compound `Cc1cc(C(C)Nc2ccccc2C(=O)O)c2nc(N3CCC(C)(C)CC3)n(C3CC3)c(=O)c2c1` (single isomer, unassigned) [Example 49, 2-((1-(3-cyclopropyl-2-(4,4-dimethylpiperidin-1-yl)-6-methyl-4-oxo-3,4-dihydroquinazolin-8-yl)ethyl)amino)benzoic acid], the EC50 fell in the range of 2 to 15 µM in series [1] (Homo sapiens, T47D, 72 h) and 2 to 15 µM in series [2]. For the same compound, the half-maximal inhibitory concentration (IC50) was 1 to 5 µM in series [3] (6 hour) and more than 15 µM in series [4] (Homo sapiens, SK-BR-3, 6 h).
Turning to `Cc1cc(C(C)Nc2ccccc2C(=O)O)c2nc(N3CCC(C)(C)CC3)n(C3CC3)c(=O)c2c1` (single isomer, unassigned) [Example 50, 2-((1-(3-cyclopropyl-2-(4,4-dimethylpiperidin-1-yl)-6-methyl-4-oxo-3,4-dihydroquinazolin-8-yl)ethyl)amino)benzoic acid], the EC50 in series [1] was 2 to 15 µM; in series [2], more than 15 µM. Moreover, the half-maximal inhibitory concentration (IC50) in series [3] (6 hour) and in series [4] (6 hour) was more than 15 µM in each case.
As for `Cc1cc(C(C)Nc2ccccc2C(=O)O)c2nc(N3CCC(C)(C)CC3)n(CF)c(=O)c2c1` (single isomer, unassigned) [Example 51, 2-((1-(2-(4,4-dimethylpiperidin-1-yl)-3-(fluoromethyl)-6-methyl-4-oxo-3,4-dihydroquinazolin-8-yl)ethyl)amino)benzoic acid], the half-maximal effective concentration (EC50) was in the range of 2 to 15 µM in series [1] (Homo sapiens, T47D, 72 h) and 2 to 15 µM in series [2]. Moreover, the IC50 in series [3] (6 hour) was 5 to 15 µM; in series [4] (Homo sapiens, SK-BR-3, 6 h), more than 15 µM.
For `Cc1cc(C(C)Nc2ccccc2C(=O)O)c2nc(N3CCC(C)(C)CC3)n(CF)c(=O)c2c1` (single isomer, unassigned) [Example 52, 2-((1-(2-(4,4-dimethylpiperidin-1-yl)-3-(fluoromethyl)-6-methyl-4-oxo-3,4-dihydroquinazolin-8-yl)ethyl)amino)benzoic acid], the EC50 is 2 to 15 µM in series [1] and more than 15 µM in series [2]. The 50% inhibitory concentration (IC50) in series [3] (6 hour) and in series [4] (6 hour) was more than 15 µM each time.
As to `Cc1cc(C(C)Nc2cccc(F)c2C(=O)O)c2nc(N3CCC(C)(C)CC3)n(C)c(=O)c2c1` (stereo not drawn) [Example 28, 2-((1-(2-(4,4-dimethylpiperidin-1-yl)-3,6-dimethyl-4-oxo-3,4-dihydroquinazolin-8-yl)ethyl)amino)-6-fluorobenzoic acid], the EC50 is 2 to 15 µM in series [1] (Homo sapiens, T47D, 72 h) and more than 15 µM in series [2] (Homo sapiens, SK-BR-3, 72 h). For the same compound, the concentration for half-maximal inhibition (IC50) in series [3] (Homo sapiens, T47D, 6 h) is 0.001 to 1 µM; in series [4] (Homo sapiens, SK-BR-3, 6 h), more than 15 µM.

The values are drawn from patent US20260242398A1, “BENZOPYRIMIDIN-4(3H)-ONES AS PI3K INHIBITORS” (OnKure, Inc., priority 2022, published 2026).
